Test systems include SF-268 CNS; UACC-62 melanoma; SK-MEL-2 melanoma; SK-MEL-5 melanoma; SNB-75 CNS; SN12C renal; EKVX NSCLC; UO-31 renal; UACC-257 melanoma; NCI-H226 lung; HCT-116 colon; SK-OV-3 ovarian; LOX IMVI melanoma; RXF 393 renal; RPMI-8226 leukemia; 786-0 renal; MDA-MB-231 breast.
Holding throughout (assay): inhibition of tumour cell growth, NCI panel, 48 h

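Growth conditions: 96-well plates. Treatment: test compound, 48 hours, 5 concentrations. Analysis: linear interpolation between bracketing concentrations; unreached endpoints set to highest concentration. GI50: concentration for 50% inhibition of growth. TGI denotes the concentration required for complete inhibition of growth.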 Where a SMILES comes first, the peptide text is derived from it.

For the compound `CC1NC(=O)CNC(=O)CNC(=O)C(Cc2ccc(O)cc2)NC(=O)C(C(C)C)NC(=O)C(C)NC1=O` (stereo not drawn) (cyclo(GGAAVY); configuration not given here), the TGI with SF-268 CNS, with UACC-62 melanoma, with SK-MEL-2 melanoma, in the assay with SK-MEL-5 melanoma, in the assay with SNB-75 CNS and in the assay on SN12C renal was > 100 µM in each case. The TGI in the assay on EKVX NSCLC, with UO-31 renal, in the assay on UACC-257 melanoma, in the assay on NCI-H226 lung, in the assay with HCT-116 colon and with SK-OV-3 ovarian was > 100 µM throughout. In addition, the TGI in the assay on LOX IMVI melanoma, in the assay with RXF 393 renal and in the assay on RPMI-8226 leukemia was > 100 µM throughout. Moreover, the GI50 in the assay on RXF 393 renal was > 100 µM.
On to `NC(N)=NCCCC(N=c1c2ccccc2n(O)c2ccccc12)C(=O)O` (stereo not drawn), for which the TGI is > 100 µM in the assay on SF-268 CNS; > 100 µM with 786-0 renal; > 100 µM with UACC-62 melanoma; > 100 µM in the assay with SK-MEL-2 melanoma; 66.6 µM with SK-MEL-5 melanoma; 87.6 µM in the assay on SNB-75 CNS. Besides, the TGI in the assay on SN12C renal, in the assay with EKVX NSCLC, in the assay with UO-31 renal, in the assay on NCI-H226 lung, in the assay on HCT-116 colon and in the assay with SK-OV-3 ovarian was > 100 µM in each case. Moreover, the values for the TGI in the assay with LOX IMVI melanoma and with RPMI-8226 leukemia were > 100 µM and 75.7 µM, respectively.
Consider `O=C(Cn1c(=O)ccn(C2OC(CO)C(O)C2F)c1=O)c1ccc(F)cc1` (stereo not drawn), for which the TGI with SF-268 CNS, in the assay with 786-0 renal, in the assay with UACC-62 melanoma, in the assay on SK-MEL-5 melanoma, with SNB-75 CNS and in the assay with MDA-MB-231 breast was > 100 µM each time. Also, the TGI in the assay on SN12C renal, with EKVX NSCLC, with UO-31 renal, with UACC-257 melanoma, with NCI-H226 lung and in the assay on HCT-116 colon was > 100 µM throughout. The TGI in the assay on LOX IMVI melanoma, with RXF 393 renal and in the assay on RPMI-8226 leukemia was > 100 µM in each case.
For `CCOC(=O)C1(C(=O)OCC)C[C@]23OCCC(=O)[C@H]2[C@H]2C(=O)OC(C)(C)O[C@]23C1`, the TGI with SF-268 CNS, in the assay on 786-0 renal, with UACC-62 melanoma, in the assay with SK-MEL-2 melanoma, in the assay with SK-MEL-5 melanoma and in the assay with SNB-75 CNS was > 100 µM in each case. For the same compound, the TGI with MDA-MB-231 breast, in the assay on SN12C renal, in the assay on EKVX NSCLC, with UO-31 renal, in the assay with UACC-257 melanoma and with HCT-116 colon was > 100 µM throughout. Moreover, the TGI with LOX IMVI melanoma and in the assay with RPMI-8226 leukemia was > 100 µM in each case.
With `CCCCCCCCCOC(=O)c1cnc(Cl)cn1`, the TGI was 46.3 µM in the assay with SF-268 CNS; > 100 µM with 786-0 renal; 33.3 µM with UACC-62 melanoma; 40.2 µM with SK-MEL-2 melanoma; 32.9 µM in the assay with SK-MEL-5 melanoma; 51.5 µM with SNB-75 CNS. For the same compound, the TGI with MDA-MB-231 breast was determined as 35.6 µM; with SN12C renal, 36.9 µM; with EKVX NSCLC it was 41.6 µM; in the assay with UO-31 renal, 34.4 µM; with UACC-257 melanoma it was 45.6 µM; with NCI-H226 lung, 32.7 µM. The TGI was 31.5 µM in the assay on HCT-116 colon, > 100 µM in the assay on SK-OV-3 ovarian, 34.4 µM in the assay on LOX IMVI melanoma and 63.5 µM in the assay on RPMI-8226 leukemia.
Consider `O=C(NN=C1CCN(Cc2ccccc2)CC1)C(O)(c1ccccc1)c1ccccc1`, for which the TGI in the assay on SF-268 CNS, in the assay on 786-0 renal, in the assay on UACC-62 melanoma, in the assay with SK-MEL-5 melanoma, in the assay on SNB-75 CNS and in the assay with MDA-MB-231 breast was > 100 µM each time. Moreover, the TGI in the assay with SN12C renal, with EKVX NSCLC, in the assay with UO-31 renal, in the assay with UACC-257 melanoma, in the assay on NCI-H226 lung and in the assay with HCT-116 colon was > 100 µM throughout. For the same compound, the TGI in the assay on SK-OV-3 ovarian, in the assay on LOX IMVI melanoma, in the assay on RXF 393 renal and in the assay with RPMI-8226 leukemia was > 100 µM in each case.
`CC1=C2C(O)C(C(C)C(=O)NCC(C)C)CCC2(C)C=CC1=O` (stereo not drawn): the TGI in the assay on SF-268 CNS, with UACC-62 melanoma, in the assay with SK-MEL-2 melanoma, in the assay on SK-MEL-5 melanoma, with SNB-75 CNS and in the assay with SN12C renal was > 100 µM each time. Also, the TGI with EKVX NSCLC, in the assay with UO-31 renal, with UACC-257 melanoma, with NCI-H226 lung, in the assay on HCT-116 colon and in the assay with LOX IMVI melanoma was > 100 µM throughout. The TGI in the assay with RXF 393 renal and in the assay with RPMI-8226 leukemia was > 100 µM throughout.
For the compound `CCN(CC)CCn1c(C(C)(C)C)nc2ccccc21`, the TGI with SF-268 CNS, in the assay with 786-0 renal, in the assay with UACC-62 melanoma, in the assay on SNB-75 CNS, in the assay with SN12C renal and in the assay with EKVX NSCLC was > 100 µM throughout. Besides, the TGI with UO-31 renal, in the assay with UACC-257 melanoma, in the assay with NCI-H226 lung, in the assay on HCT-116 colon, in the assay with SK-OV-3 ovarian and in the assay with RXF 393 renal was > 100 µM throughout. The TGI in the assay with RPMI-8226 leukemia is > 100 µM.
Regarding `C=C1C(=O)O[C@@H]2[C@H]3O[C@]3(C)CCC=C(C)CC[C@@H]12`, the TGI in the assay on SF-268 CNS came out at 62.6 µM; in the assay on UACC-62 melanoma, 37.7 µM; with SK-MEL-2 melanoma it was 37.7 µM; with SK-MEL-5 melanoma, 49.1 µM; in the assay with SNB-75 CNS it was 123 µM; in the assay with SN12C renal, 50.2 µM. Moreover, the TGI in the assay on EKVX NSCLC amounted to 39.2 µM; in the assay on UO-31 renal, 91.9 µM; with UACC-257 melanoma, 34.9 µM; in the assay on NCI-H226 lung, 49.1 µM; with HCT-116 colon it was 35.1 µM; in the assay with SK-OV-3 ovarian, 131 µM. Also, the TGI in the assay with LOX IMVI melanoma came to 21.2 µM; in the assay with RXF 393 renal it was 27.4 µM; in the assay with RPMI-8226 leukemia, 77.2 µM.
